Read-outs that look alike come from different tables or passages of the source. Ends that are not written are not given here.

Data on seven compounds can be found in patent US5157019A, “Serine protease inhibitors” (Monsanto Company, priority 1991, dated 1992).

What all share (format): biochemical
Assay [1] concerns the target T1, HUMAN SPUTUM ELASTASE (Homo sapiens, UniProt P08246).
T1 construct: HUMAN SPUTUM ELASTASE; purchased Elastin Products Company SE563; host or cells: human sputum (from the product name)
T1 sequence (P08246 30-267): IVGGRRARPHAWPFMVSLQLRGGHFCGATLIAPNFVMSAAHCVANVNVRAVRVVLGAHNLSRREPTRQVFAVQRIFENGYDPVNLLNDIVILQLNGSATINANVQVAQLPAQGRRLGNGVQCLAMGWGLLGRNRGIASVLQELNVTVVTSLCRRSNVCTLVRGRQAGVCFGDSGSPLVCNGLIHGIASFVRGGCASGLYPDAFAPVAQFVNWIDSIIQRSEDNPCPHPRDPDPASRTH
The experiment in a line: Elastase assay (MeO-Suc-Ala-Pro-Val-pNA). The conditions noted are these: 200 μM peptide. As for the experimental part:
Enzyme used is "HUMAN SPUTUM ELASTASE®" which is an enzyme which is the target protease for α1 antitrypsin from Elastin Products Company, Catalog No. SE563, lot 85071, 875 units/mg as determined by supplier with N-Suc-Ala-Ala-Ala-pNA; prepared at 0.2 mg/mL in 0.1M Tris·HCl, pH 8.8 at 37 degrees C. An amount of enzyme is used to give approximately 0.1 change in Absorbance/min; which in this assay was 1 μg.
The substrate is MeO-Suc-Ala-Pro-Val-pNA, Sigma Catalog No. M-4765. About 50 mg of the substrate is dissolved in 1 ml of 1-methyl-2-pyrrolidinone and diluted to 33 mls. with 0.1M Tris-HCl, pH 7.5, containing 0.5M NaCl, and 0.01 wt % sodium azide.
Peptide solutions are prepared at 500 μM, using 1.5% of the final volume of DMSO first and diluting with distilled water (DW) or 0.1M Tris.HCl, pH 8.8 at 37 degrees C. [formula]

The target of assay [2] is T2, Factor D (Homo sapiens, UniProt P00746).
T2 construct: prepared from pooled human plasma; from tissue; host or cells: pooled human plasma
The experiment in a line: Factor D assay by inhibition of fluid phase Factor B activation. How it is done: Highly purified C3, C4, Factor D, Factor B, and C1s were prepared from pooled human plasma. Factors B and C4 were radiolabeled by periodate oxidation of sialic acid residues, followed by reduction with tritiated sodium borohydride. In a representative experiment, a solution of 1.2 mg of factor B in 1.8 ml of PBS was treated with 70 μl of 0.1M NaIO4. After 10 min incubation on ice, excess reagent was removed by filtration over "SEPHADEX®" which is a matrix for gel chromatography (1.0 cm×20 cm). To the protein pool was added 60 μl of NaB[^3 H]4 solution and incubated for 30 min on ice. Labeled protein was separated from excess reagent by desalting or dialysis. Human C4 was radiolabeled in the same manner. Radiolabeled proteins were stored at -70° C. in PBS. The specific radioactivity of ^3 H factor B was about 10,000 CPM/μg and that of ^3 H-C4 was 5,000 CPM/μg.
The effect of the peptides on Factor D-dependent cleavage of factor B was studied by incubating 3.5 μg of Factor B, 1.5 μg of C3(H2 O) and 0.2 μl of Factor D at 37° C. for 60 min in Mg-PBS containing different concentrations of inhibitor. Uncleaved Factor B and its fragments, Ba and Bb, were first separated by SDS-PAGE and analyzed as described above. The percent cleavage of the reaction was calculated as follows: [formula]
B=radioactivity (CPM) of uncleaved factor B
Bb=radioactivity (CPM) of fragment Bb
Ba=radioactivity (CPM) of fragment Ba
Electrophoresis was carried out under reducing conditions in the Laemmli system using slab gel of 8% polyacrylamide. The gels were stained and destained (Fairbanks et al. Biochemistry (1971) 10:2606).
The percent inhibition of the reaction was calculated according to the following relationship: [formula]
A: % cleavage without inhibitor
B: % cleavage with inhibitor
The concentration inducing 50% inhibition was obtained by plotting the percent inhibition on a probability graph (National Blank Book Co., No. 12-083) on the ordinate and the log of the inhibitor concentration on the abscissa. From this graph, a 50% inhibition concentration IC50 was obtained and this value was employed to express the activity.

The target of assay [3] is Thrombin (Homo sapiens, UniProt P00734). The experiment in a line: Coagulation inhibition assay, thrombin (fibrinogen clotting end point). The conditions noted are these: 40 μM peptide. How it is done:
Inhibitory activity of subject peptides toward thrombin and Factor Xa were done in the following manner. Mix 100 μL Thrombin (3.125 units/ml, 1.125 μg/ml) in TAB with […] Peptide in TAB and incubate for 1 minute at 37° C. Add 50 μL Fibrinogen (2 mg/ml)and measure clotting end point (in seconds) in a Fibrometer (BBL) TAB=Thrombin Assay Buffer: 0.15M NaCl, 6.6 gm/L PEG-6000, 0.01M Imidazole, 0.01 CaCl2, pH 7.4

Assay [4] deals with Plasmin (Homo sapiens, UniProt P00747). The experiment in a line: Plasmin assay (S2251). The conditions noted are these: 200 μM peptide. How it is done: Substrate H-D-Val-Leu-Lys-pNA·HCl (S2251, Kabi), 10 mM in deionized water; may be frozen for future use.
Buffer 50 mM Tris·HCl, pH 7.4 containing 0.01% Tween 80
Inhibitor 400 μM in deionized water
Enzyme Plasmin; 0.5 U/ml in buffer (Cat #P-4895, Sigma Chemical Co., St. Louis, Mo.)
Mix 220 μL buffer, 200 μL deionized water (control) or inhibitor solution and 40 μL substrate. Incubate for 2 min at 37° C. Transfer 230 μL to a microcuvette, add 40 μL of enzyme, mix, and measure rate spectrophotometrically at 405 nm for about 5 min. Inhibition (%) is calculated in the same manner as in previous assays.

For assay [5], the target named is T3, Plasma Kallikrein (Homo sapiens, UniProt P03952).
T3 construct: purchased Sigma K-3126
The experiment in a line: Plasma kallikrein assay (Chromozym PK). The note with it: for Kallikrein % inhibition: 50 μM peptide; for inhibition at 100 µM: 100 μM peptide. How it is done: Buffer 150 mM Tris·HCl, pH 8.0
Substrate Benzyl-Pro-Phe-Arg-pNa (Chromozym PK, Boeringer Mannheim), 10 mM in deionized water.
Enzyme Plasma Kallikrein (Sigma, K-3126), 0.0312 μ/ml. Used undiluted.
Inhibitor Dissolved at desired concentrations in deionized water or DMSO plus deionized water depending on solubility.
4. Incubate mixture for 5 min at 25° C.
6. Measure rate spectrophotometrically at […] at 25° C.
2. Add appropriate volume of peptide solution
3. Add adjusted volume of buffer compensating for volume of peptide solution.
4. Add an adjusted volume of DMSO to maintain a final amount of 25 μl in the assay
5. Incubate mixture for 5 min at 25° C.
7. Measure rate spectrophotometrically at […] at 25° C.
Inhibition (%) is calculated in the same manner as in previous assays.

The mark [6] stands for this setting: Table X, μM concentration at which protease was inhibited 50%, read-out: IC50 D.
Setting [7] is: Tables VI and VIII, % 50, read-out: Factor D, μM concentration listed for 50 % inhibition.

Chain of Plasmin (P00747 581-810 limits assumed): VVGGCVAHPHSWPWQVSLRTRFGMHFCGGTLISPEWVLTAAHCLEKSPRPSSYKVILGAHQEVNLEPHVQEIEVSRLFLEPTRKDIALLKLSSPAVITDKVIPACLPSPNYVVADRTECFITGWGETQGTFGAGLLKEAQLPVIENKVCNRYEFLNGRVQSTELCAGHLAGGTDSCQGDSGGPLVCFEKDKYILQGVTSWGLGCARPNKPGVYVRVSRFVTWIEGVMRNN
Chain of Plasmin (P00747 97-580 partner limits assumed): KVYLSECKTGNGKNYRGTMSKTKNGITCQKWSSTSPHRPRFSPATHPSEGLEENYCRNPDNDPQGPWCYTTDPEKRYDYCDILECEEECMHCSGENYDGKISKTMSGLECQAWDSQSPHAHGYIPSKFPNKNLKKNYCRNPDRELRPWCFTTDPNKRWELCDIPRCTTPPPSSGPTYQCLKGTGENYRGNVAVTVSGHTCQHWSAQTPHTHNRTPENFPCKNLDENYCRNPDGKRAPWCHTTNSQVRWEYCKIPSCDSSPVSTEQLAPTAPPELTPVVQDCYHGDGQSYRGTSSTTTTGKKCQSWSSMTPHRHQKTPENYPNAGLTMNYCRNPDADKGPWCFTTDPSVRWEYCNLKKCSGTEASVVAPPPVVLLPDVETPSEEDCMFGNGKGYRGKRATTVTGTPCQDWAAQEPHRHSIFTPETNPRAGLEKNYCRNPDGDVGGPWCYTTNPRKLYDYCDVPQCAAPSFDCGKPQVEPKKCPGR
T2 sequence (P00746 26-253): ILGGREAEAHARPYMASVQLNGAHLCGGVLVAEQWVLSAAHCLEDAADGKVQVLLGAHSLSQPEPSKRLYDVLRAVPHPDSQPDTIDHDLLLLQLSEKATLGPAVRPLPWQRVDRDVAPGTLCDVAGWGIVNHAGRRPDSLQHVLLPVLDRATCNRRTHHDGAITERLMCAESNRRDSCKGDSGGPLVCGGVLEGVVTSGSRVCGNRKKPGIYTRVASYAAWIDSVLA
T3 sequence (P03952 20-638): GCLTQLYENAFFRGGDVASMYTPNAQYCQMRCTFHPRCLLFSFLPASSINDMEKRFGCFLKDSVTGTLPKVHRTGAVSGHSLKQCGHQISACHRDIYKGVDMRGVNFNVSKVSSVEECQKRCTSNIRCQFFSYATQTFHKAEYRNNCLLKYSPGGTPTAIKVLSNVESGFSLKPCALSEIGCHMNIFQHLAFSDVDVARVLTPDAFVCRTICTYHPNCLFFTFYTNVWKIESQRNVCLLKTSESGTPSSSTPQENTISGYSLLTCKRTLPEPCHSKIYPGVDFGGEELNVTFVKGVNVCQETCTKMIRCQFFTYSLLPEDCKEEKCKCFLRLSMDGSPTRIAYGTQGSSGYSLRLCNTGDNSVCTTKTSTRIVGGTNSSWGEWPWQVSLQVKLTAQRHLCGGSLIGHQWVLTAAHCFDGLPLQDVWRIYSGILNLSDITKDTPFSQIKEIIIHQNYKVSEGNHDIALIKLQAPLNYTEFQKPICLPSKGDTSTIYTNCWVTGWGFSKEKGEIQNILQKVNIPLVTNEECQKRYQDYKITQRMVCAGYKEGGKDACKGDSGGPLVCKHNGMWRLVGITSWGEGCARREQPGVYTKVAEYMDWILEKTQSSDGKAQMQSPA

A word on the inhibition: it is how much of the control response was suppressed. A higher inhibition goes with a strong effect. As for `CC[C@H](C)[C@H](NC(=O)[C@H](CC(C)C)NC(=O)[C@H](Cc1ccccc1)NC(=O)[C@@H](NC(=O)[C@H](Cc1ccccc1)NC(=O)[C@@H]1CCCN1C(=O)[C@H](CCCCN)NC(=O)[C@H](CC(N)=O)NC(=O)[C@H](Cc1ccccc1)NC(=O)[C@H](CCCCN)NC(=O)[C@@H](NC(=O)[C@H](CCC(=O)O)NC(=O)[C@@H]1CCCN1C(=O)[C@@H]1CCCN1)C(C)C)C(C)C)C(=O)O` [Peptide 1], in assay [1], the “Elastase Inhibition” value is given as “no inhibitory activity”. In addition, the inhibition at 200 µM in assay [1] stood at 0%; in assay [2] (200 μM peptide), 0%; in assay [4], 37%. The same compound gave an inhibition at 40 µM in assay [3] of 0%.
Regarding “AGRSLNPNRVTFKANRPFLVFIREVPLNTIIFLGRVANP [Peptide 27]”, 200 µM produced 0% inhibition in assay [1]. In addition, the IC50 in assay [2] (setting [6]) is < 25 µM. Also, the inhibition at 40 µM in assay [3] came to 97%.
Regarding IVRFNRPFLLII [Peptide 3], the inhibition at 200 µM in assay [1] was found to be 0%; in assay [4], 33%. The IC50 in assay [2] (setting [7]) was determined as 111 µM. Further, at 40 µM the inhibition in assay [3] was 50%.
As to “IVRFNRPFLLIIVPTDTQNIFFLSKVTNPSKPR [Peptide 22]”, the “Elastase Inhibition” value in assay [1] was found to be 0%. In assay [2] (setting [7]), the IC50 was 4 µM. In assay [3], this compound registered a Thrombin inhibition of 90%. This compound also showed a Kallikrein % inhibition in assay [5] of 58%. Moreover, the Plasmin % inhibition in assay [4] was 56%.
As to PNRVTFKANRPFLVFI [Peptide 2], the inhibition at 200 µM in assay [1] was 0%; in assay [4] it was 33%. In addition, the IC50 in assay [2] (setting [7]) is 53 µM. In assay [5], at 100 µM the inhibition was 21%.
For the compound “RVTFKANRPFLVFIREVPLNTIIFLGRVANP [Peptide 21]”, the inhibition at 200 µM in assay [1] turned out to be 0%; in assay [4], 53%. The IC50 in assay [2] (setting [6]) and in assay [2] (setting [7]) was < 8 µM each time. The compound also displayed an inhibition at 40 µM in assay [3] of 97%. Also, 100 µM produced 55% inhibition in assay [5].
As for “VKFNKPFVFLLIEQNTKSPLFLGKVVNPTQK [Peptide 20]”, the “Elastase Inhibition” value in assay [1] amounted to 0%. In addition, in assay [2] (setting [7]), the IC50 turned out to be 16 µM. In assay [3], this compound registered a Thrombin inhibition of 71%. This compound also had a Kallikrein % inhibition in assay [5] of 0%. The same compound came in with a Plasmin % inhibition in assay [4] of 43%.
